Measurements from ChEMBL document CHEMBL5463729, “Data for DCP probe BAY 1753011” (2023).
Active and inactive are the calls of the source. The calls are words filed in the database; no cut-off is given here.

Columns and labels:
[1] = molecular target: Kappa-type opioid receptor (Homo sapiens, UniProt P41145); conditions: Compound concentration 10.0 uM
[2] = molecular target: Transcription initiation factor TFIID subunit 1-like (Homo sapiens) (UniProt Q8IZX4); experiment: Inhibition of TAF1L(h) at 10.0 µM in the Eurofins Kinase panel; conditions: Compound concentration 10.0 uM
[3] = molecular target: Glutamate NMDA receptor (Rattus norvegicus) (UniProt P35439+Q00959+Q00960+Q00961+Q62645+Q8VHN2+Q9R1M7); conditions: Compound concentration 10.0 uM
[4] = molecular target: Mitogen-activated protein kinase kinase kinase 11 (Homo sapiens) (UniProt Q16584); experiment: Inhibition of MLK3(h) at 10.0 µM in the Eurofins Kinase panel; conditions: Compound concentration 10.0 uM
[5] = molecular target: PI3K p110 beta/p85 alpha (Homo sapiens) (UniProt P27986+P42338); experiment: Inhibition of PI3 Kinase (p110b/p85a)(h) at 10.0 µM in the Eurofins Kinase panel; format: protein-complex assay; conditions: Compound concentration 10.0 uM
[6] = molecular target: MAP kinase-activated protein kinase 3 (Homo sapiens) (UniProt Q16644); experiment: Inhibition of MAPKAP-K3(h) at 10.0 µM in the Eurofins Kinase panel; conditions: Compound concentration 10.0 uM
[7] = molecular target: D(2) dopamine receptor (Homo sapiens) (UniProt P14416); conditions: Compound concentration 10.0 uM
[8] = molecular target: Phosphatidylinositol 4,5-bisphosphate 3-kinase catalytic subunit gamma isoform (Homo sapiens) (UniProt P48736); experiment: Inhibition of PI3 Kinase (p120g)(h) at 10.0 µM in the Eurofins Kinase panel; conditions: Compound concentration 10.0 uM
[9] = molecular target: Serine/threonine-protein kinase TAO3 (Homo sapiens) (UniProt Q9H2K8); experiment: Inhibition of TAO3(h) at 10.0 µM in the Eurofins Kinase panel; conditions: Compound concentration 10.0 uM
[10] = molecular target: MAP/microtubule affinity-regulating kinase 3 (Homo sapiens) (UniProt P27448); experiment: Inhibition of MARK3(h) at 10.0 µM in the Eurofins Kinase panel; conditions: Compound concentration 10.0 uM
[11] = molecular target: Mitogen-activated protein kinase 9 (Homo sapiens) (UniProt P45984); experiment: Inhibition of JNK2alpha2(h) at 10.0 µM in the Eurofins Kinase panel; conditions: Compound concentration 10.0 uM
[12] = molecular target: Serine/threonine-protein kinase DCLK1 (Homo sapiens) (UniProt O15075); experiment: Inhibition of DCAMKL1(h) at 10.0 µM in the Eurofins Kinase panel; conditions: Compound concentration 10.0 uM
[13] = molecular target: Mitogen-activated protein kinase kinase kinase 10 (Homo sapiens) (UniProt Q02779); experiment: Inhibition of MLK2(h) at 10.0 µM in the Eurofins Kinase panel; conditions: Compound concentration 10.0 uM
[14] = molecular target: 5-hydroxytryptamine receptor 5A (Homo sapiens) (UniProt P47898); conditions: Compound concentration 10.0 uM
[15] = molecular target: Serine/threonine-protein kinase MARK2 (Homo sapiens) (UniProt Q7KZI7); experiment: Inhibition of PAR-1Balpha(h) at 10.0 µM in the Eurofins Kinase panel; conditions: Compound concentration 10.0 uM
[16] = molecular target: PAS domain-containing serine/threonine-protein kinase (Homo sapiens) (UniProt Q96RG2); experiment: Inhibition of PASK(h) at 10.0 µM in the Eurofins Kinase panel; conditions: Compound concentration 10.0 uM
[17] = molecular target: MAP/microtubule affinity-regulating kinase 4 (Homo sapiens) (UniProt Q96L34); experiment: Inhibition of MARK4(h) at 10.0 µM in the Eurofins Kinase panel; conditions: Compound concentration 10.0 uM
[18] = molecular target: Serine/threonine-protein kinase VRK2 (Homo sapiens) (UniProt Q86Y07); experiment: Inhibition of VRK2(h) at 10.0 µM in the Eurofins Kinase panel; conditions: Compound concentration 10.0 uM
[19] = molecular target: Serine/threonine-protein kinase WNK3 (Homo sapiens) (UniProt Q9BYP7); experiment: Inhibition of WNK3(h) at 10.0 µM in the Eurofins Kinase panel; conditions: Compound concentration 10.0 uM
[20] = molecular target: G protein-coupled receptor kinase 4 (Homo sapiens) (UniProt P32298); experiment: Inhibition of GRK4(h) at 10.0 µM in the Eurofins Kinase panel; conditions: Compound concentration 10.0 uM
[21] = molecular target: Activated CDC42 kinase 1 (Homo sapiens) (UniProt Q07912); experiment: Inhibition of ACK1(h) at 10.0 µM in the Eurofins Kinase panel; conditions: Compound concentration 10.0 uM
[22] = molecular target: Serine/threonine-protein kinase 32C (Homo sapiens) (UniProt Q86UX6); experiment: Inhibition of STK32C(h) at 10.0 µM in the Eurofins Kinase panel; conditions: Compound concentration 10.0 uM
[23] = molecular target: G protein-coupled receptor kinase 6 (Homo sapiens) (UniProt P43250); experiment: Inhibition of GRK6(h) at 10.0 µM in the Eurofins Kinase panel; conditions: Compound concentration 10.0 uM
[24] = molecular target: Dual specificity tyrosine-phosphorylation-regulated kinase 2 (Homo sapiens) (UniProt Q92630); experiment: Inhibition of DYRK2(h) at 10.0 µM in the Eurofins Kinase panel; conditions: Compound concentration 10.0 uM
[25] = molecular target: TGF-beta receptor type-1 (Homo sapiens) (UniProt P36897); experiment: Inhibition of TGFBR1(h) at 10.0 µM in the Eurofins Kinase panel; conditions: Compound concentration 10.0 uM
[26] = molecular target: Serine/threonine-protein kinase NLK (Homo sapiens) (UniProt Q9UBE8); experiment: Inhibition of NLK (h) at 10.0 µM in the Eurofins Kinase panel; conditions: Compound concentration 10.0 uM
Oxytocin receptor = molecular target: T1, Oxytocin receptor (Homo sapiens, UniProt P30559); experiment: Radiometric OXTR binding assay (Eurofins #260900)
T1 sequence (P30559 whole entry): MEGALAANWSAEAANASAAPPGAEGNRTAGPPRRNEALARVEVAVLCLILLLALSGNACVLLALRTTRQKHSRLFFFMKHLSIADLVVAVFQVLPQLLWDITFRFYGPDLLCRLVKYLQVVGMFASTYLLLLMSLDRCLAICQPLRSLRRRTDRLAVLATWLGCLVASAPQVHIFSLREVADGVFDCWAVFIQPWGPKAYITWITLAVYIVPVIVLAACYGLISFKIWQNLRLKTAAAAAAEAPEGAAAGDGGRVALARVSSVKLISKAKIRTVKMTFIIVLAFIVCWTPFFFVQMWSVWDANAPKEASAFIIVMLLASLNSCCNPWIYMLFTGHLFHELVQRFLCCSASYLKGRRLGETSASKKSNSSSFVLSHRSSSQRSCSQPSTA

[27] = molecular target: Muscarinic acetylcholine receptor M3 (Homo sapiens) (UniProt P20309); conditions: Compound concentration 10.0 uM
[28] = molecular target: Serine/threonine-protein kinase PRP4 homolog (Homo sapiens) (UniProt Q13523); experiment: Inhibition of PRP4(h) at 10.0 µM in the Eurofins Kinase panel; conditions: Compound concentration 10.0 uM
[29] = molecular target: NUAK family SNF1-like kinase 1 (Homo sapiens) (UniProt O60285); experiment: Inhibition of ARK5(h) at 10.0 µM in the Eurofins Kinase panel; conditions: Compound concentration 10.0 uM
[30] = molecular target: Serine/threonine-protein kinase D2 (Homo sapiens) (UniProt Q9BZL6); experiment: Inhibition of PKD2(h) at 10.0 µM in the Eurofins Kinase panel; conditions: Compound concentration 10.0 uM
[31] = molecular target: Dual specificity mitogen-activated protein kinase kinase 1 (Homo sapiens) (UniProt Q02750); experiment: Inhibition of MEK1(h) at 10.0 µM in the Eurofins Kinase panel; conditions: Compound concentration 10.0 uM
[32] = molecular target: Cyclin-Y/Cyclin-dependent kinase 16 (Homo sapiens) (UniProt Q00536+Q8ND76); experiment: Inhibition of CDK16/cyclinY(h) at 10.0 µM in the Eurofins Kinase panel; format: protein-complex assay; conditions: Compound concentration 10.0 uM

5-hydroxytryptamine receptor 5A (Homo sapiens), sequence (P47898 whole entry): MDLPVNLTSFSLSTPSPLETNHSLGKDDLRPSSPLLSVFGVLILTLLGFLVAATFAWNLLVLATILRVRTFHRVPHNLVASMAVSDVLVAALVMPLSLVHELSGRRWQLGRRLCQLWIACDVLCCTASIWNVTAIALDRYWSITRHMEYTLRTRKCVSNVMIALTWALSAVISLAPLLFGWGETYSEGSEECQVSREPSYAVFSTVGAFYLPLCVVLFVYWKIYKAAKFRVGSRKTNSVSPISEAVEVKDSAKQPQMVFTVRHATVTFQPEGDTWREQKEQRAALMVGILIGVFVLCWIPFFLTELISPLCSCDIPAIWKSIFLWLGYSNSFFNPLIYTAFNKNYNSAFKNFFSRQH
Muscarinic acetylcholine receptor M3 (Homo sapiens), sequence (P20309 whole entry, looked up): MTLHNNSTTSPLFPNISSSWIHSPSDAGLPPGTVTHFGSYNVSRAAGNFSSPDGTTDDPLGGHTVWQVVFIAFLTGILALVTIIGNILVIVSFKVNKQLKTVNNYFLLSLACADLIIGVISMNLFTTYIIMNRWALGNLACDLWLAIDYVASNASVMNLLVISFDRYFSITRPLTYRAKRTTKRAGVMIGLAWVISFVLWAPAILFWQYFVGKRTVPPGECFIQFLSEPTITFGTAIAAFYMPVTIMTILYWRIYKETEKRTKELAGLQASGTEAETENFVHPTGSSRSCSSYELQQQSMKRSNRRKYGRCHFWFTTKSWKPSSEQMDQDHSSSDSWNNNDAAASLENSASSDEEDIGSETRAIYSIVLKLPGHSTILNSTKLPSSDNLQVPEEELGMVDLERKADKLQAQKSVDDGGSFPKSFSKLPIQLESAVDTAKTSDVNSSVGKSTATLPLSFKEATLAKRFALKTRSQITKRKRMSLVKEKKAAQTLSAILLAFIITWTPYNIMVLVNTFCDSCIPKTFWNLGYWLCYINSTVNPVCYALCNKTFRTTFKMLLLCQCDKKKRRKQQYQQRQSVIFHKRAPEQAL
D(2) dopamine receptor (Homo sapiens), sequence (P14416 whole entry, canonical isoform): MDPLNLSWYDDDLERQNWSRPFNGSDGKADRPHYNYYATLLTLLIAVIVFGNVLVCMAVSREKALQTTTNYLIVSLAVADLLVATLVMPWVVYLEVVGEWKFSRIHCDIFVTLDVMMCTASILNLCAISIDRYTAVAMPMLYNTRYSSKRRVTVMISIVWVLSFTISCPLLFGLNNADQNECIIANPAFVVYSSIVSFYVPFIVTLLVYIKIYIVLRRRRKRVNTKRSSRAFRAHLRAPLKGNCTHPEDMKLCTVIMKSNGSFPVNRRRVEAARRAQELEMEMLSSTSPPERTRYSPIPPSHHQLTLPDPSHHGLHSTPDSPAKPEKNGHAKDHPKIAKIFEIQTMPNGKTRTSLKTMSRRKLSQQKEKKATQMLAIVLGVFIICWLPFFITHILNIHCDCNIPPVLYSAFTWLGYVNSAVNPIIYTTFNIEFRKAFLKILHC
Serine/threonine-protein kinase WNK3 (Homo sapiens), sequence (Q9BYP7 whole entry): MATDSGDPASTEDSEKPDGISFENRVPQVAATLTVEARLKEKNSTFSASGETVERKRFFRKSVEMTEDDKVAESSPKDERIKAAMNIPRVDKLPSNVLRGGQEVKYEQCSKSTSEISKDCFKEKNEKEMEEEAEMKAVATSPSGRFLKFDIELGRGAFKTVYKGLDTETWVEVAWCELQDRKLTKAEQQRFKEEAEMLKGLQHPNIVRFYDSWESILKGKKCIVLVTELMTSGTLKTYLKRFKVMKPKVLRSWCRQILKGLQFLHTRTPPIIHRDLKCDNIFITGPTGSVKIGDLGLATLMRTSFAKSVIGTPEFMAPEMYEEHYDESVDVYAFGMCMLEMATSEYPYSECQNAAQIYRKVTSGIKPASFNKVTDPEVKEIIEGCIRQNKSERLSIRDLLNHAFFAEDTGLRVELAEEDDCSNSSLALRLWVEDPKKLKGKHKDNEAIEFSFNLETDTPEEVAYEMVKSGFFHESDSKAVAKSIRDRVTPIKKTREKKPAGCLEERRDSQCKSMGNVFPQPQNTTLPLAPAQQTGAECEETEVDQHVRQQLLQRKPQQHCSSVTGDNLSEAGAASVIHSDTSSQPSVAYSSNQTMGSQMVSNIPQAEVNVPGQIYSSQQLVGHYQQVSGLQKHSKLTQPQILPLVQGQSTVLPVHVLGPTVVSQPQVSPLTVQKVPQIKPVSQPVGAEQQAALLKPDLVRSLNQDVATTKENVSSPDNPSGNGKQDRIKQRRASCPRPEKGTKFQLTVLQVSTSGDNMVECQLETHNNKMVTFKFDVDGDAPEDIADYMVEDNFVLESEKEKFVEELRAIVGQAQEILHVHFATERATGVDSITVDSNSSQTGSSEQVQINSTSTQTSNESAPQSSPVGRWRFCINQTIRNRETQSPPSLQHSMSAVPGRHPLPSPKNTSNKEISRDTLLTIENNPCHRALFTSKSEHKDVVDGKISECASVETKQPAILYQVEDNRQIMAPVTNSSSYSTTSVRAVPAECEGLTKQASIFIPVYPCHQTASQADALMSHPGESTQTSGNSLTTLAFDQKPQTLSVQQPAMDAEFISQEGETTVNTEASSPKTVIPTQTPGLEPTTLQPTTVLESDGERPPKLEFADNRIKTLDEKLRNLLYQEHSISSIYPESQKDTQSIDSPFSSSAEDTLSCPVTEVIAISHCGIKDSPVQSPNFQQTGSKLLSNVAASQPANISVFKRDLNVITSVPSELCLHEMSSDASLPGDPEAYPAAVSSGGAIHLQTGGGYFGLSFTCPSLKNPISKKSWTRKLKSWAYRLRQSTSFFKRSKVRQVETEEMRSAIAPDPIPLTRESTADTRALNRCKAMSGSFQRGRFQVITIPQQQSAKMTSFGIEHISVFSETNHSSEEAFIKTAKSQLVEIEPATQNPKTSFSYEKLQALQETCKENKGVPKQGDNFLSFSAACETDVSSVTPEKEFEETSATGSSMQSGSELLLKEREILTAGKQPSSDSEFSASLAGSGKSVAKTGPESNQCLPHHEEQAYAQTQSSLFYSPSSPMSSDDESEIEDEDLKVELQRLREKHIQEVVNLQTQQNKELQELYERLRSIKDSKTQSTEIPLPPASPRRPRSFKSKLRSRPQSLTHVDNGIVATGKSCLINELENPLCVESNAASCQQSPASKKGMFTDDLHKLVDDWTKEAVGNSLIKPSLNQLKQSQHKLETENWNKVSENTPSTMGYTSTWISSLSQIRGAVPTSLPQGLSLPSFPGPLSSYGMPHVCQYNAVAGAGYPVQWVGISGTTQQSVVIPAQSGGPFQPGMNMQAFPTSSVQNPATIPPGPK
Serine/threonine-protein kinase TAO3 (Homo sapiens), sequence (Q9H2K8 whole entry): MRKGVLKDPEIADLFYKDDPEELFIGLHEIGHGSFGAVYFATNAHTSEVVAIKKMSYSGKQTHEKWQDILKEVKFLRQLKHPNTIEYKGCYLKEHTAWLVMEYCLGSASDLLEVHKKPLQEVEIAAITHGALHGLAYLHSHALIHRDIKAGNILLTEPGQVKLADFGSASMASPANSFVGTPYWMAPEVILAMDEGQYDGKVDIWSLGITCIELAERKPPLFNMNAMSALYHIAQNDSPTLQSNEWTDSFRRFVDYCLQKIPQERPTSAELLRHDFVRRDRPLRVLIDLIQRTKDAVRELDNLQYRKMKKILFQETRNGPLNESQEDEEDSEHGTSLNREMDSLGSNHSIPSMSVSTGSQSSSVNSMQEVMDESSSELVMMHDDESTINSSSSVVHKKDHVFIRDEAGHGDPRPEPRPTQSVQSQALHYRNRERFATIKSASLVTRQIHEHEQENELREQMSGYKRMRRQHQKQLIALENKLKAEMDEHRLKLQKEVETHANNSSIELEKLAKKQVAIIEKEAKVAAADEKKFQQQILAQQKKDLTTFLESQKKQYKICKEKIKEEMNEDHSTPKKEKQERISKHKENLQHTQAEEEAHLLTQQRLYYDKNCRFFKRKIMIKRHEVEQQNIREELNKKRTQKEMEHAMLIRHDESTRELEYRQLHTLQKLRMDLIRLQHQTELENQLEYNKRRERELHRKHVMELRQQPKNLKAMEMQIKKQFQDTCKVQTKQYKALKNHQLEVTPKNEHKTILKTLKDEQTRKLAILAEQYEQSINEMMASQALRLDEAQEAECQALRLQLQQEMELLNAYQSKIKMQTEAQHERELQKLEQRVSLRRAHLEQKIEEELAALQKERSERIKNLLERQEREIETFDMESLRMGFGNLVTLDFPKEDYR
TGF-beta receptor type-1 (Homo sapiens), sequence (P36897 whole entry): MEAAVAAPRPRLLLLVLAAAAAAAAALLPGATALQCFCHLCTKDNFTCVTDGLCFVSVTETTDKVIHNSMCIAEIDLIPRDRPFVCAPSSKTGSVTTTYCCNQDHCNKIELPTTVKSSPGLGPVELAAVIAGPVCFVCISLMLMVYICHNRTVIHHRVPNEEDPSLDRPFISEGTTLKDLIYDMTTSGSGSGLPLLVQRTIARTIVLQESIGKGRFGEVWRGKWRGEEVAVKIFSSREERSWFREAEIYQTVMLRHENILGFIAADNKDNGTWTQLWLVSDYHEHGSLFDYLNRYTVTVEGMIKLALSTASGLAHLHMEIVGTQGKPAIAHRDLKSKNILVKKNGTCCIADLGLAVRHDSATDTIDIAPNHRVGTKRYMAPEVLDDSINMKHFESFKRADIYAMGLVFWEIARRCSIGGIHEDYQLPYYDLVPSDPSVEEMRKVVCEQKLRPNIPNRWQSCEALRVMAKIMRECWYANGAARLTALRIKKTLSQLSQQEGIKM
Dual specificity mitogen-activated protein kinase kinase 1 (Homo sapiens), sequence (Q02750 whole entry): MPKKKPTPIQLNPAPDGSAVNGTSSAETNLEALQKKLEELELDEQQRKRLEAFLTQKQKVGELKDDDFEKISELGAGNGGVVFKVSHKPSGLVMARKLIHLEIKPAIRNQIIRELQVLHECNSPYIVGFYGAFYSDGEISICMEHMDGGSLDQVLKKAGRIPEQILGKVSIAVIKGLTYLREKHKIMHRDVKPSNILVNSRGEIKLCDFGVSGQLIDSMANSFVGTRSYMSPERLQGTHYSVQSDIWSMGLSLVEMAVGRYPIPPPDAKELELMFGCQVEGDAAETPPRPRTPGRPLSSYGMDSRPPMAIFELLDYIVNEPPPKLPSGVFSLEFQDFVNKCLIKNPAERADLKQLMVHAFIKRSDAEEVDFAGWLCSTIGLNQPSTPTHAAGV

| Compound | inhibition [1] [%] | inhibition [2] [%] | inhibition [3] [%] | inhibition [4] [%] | inhibition [5] [%] | inhibition [6] [%] | inhibition [7] [%] | inhibition [8] [%] | inhibition [9] [%] | inhibition [10] [%] | inhibition [11] [%] | inhibition [12] [%] | inhibition [13] [%] | inhibition [14] [%] | inhibition [15] [%] | inhibition [16] [%] | inhibition [17] [%] | inhibition [18] [%] | inhibition [19] [%] | inhibition [20] [%] | other results |
| --- | --- | --- | --- | --- | --- | --- | --- | --- | --- | --- | --- | --- | --- | --- | --- | --- | --- | --- | --- | --- | --- |
| O=c1n(Cc2cncn2-c2cccc(Cl)c2)nc(-c2ccc(Cl)cc2)n1C[C@H](O)C(F)(F)F | 10 | -2.39 | -4 | 14.9 | -2.42 | -3.79 | -8.61 | 9.44 | 3.07 | -3.59 | 2.28 | -2.6 | 0.43 | -4.02 | 5.49 | -0.36 | 2.56 | 10.4 | -2.58 | -1.52 | inhibition [21]: 8.43%; inhibition [22]: -2.95%; inhibition [23]: -0.21%; inhibition [24]: -8.9%; inhibition [25]: 3.39%; inhibition [26]: -1.74%; Ki (Oxytocin receptor): > 10 µM (not active); inhibition [27]: -4.25%; inhibition [28]: -1.84%; inhibition [29]: -2.39%; inhibition [30]: 1.71%; inhibition [31]: 4.57%; inhibition [32]: 4.57% |
| C[C@H](O)c1nc(Cn2nc(-c3ccc(Cl)cc3)n(C[C@H](O)C(F)(F)F)c2=O)nn1-c1cccc(Cl)c1 [PECAVAPTAN] | 19 | 2.81 | -10 | 11.3 | -1.96 | -7.04 | -5.84 | 14.1 | 5.55 | -2.13 | -1.69 | -1.32 | 4.18 | 3.65 | 7.5 | -4.97 | 2.7 | 6.61 | -3.44 | -0.06 | inhibition [21]: -1.31%; inhibition [22]: 1.11%; inhibition [23]: 1.15%; inhibition [24]: -0.76%; inhibition [25]: 5.09%; inhibition [26]: -2.51%; Ki (Oxytocin receptor): 0.0051 µM (active); inhibition [27]: 28.2%; inhibition [28]: 6.82%; inhibition [29]: -3.57%; inhibition [30]: 1.59%; inhibition [31]: -3.73%; inhibition [32]: -5.42% |
